Paper PMC4833932, “Cytotoxicity and cell cycle arrest induced by andrographolide lead to programmed cell death of MDA-MB-231 breast cancer cell line” (Journal of Biomedical Science, 2016)
Several values for one entry are separate records, joined by “and”; a condition that tells them apart may be missing. Identical values can stand only once.

Key:
MDA-MB-231 = assay: In vitro cytotoxicity (MTT) assay; type: cell-based, human
Protocol: (§1) The effect of andrographolide on cell viability was measured by MTT assay following the method by Mosmann. Briefly, the cells (1 × 10^5 cells per ml) were seeded in a 96 well micro titer plate (100 μl per well) with replications. Treatment was conducted for 24 and 48 h with different concentrations (0, 5, 7.5, 15, 30, 45, 60, 75 and 100 μM) of andrographolide. After incubation, 20 μl of 5 mg/ml MTT stock solution was added to each well and incubated for 4 h at 37 °C. The obtained formazan crystals were solubilized with DMSO and the absorbance was measured at 570 nm using a microplate reader (SpectraMax M5, Molecular Devices, USA). Cell viability (%) has been shown as a ratio of absorbance (A570) in treated cells to absorbance in control cells (0.1 % DMSO) (A570). The IC50 was calculated as the concentration of sample needed to reduce 50 % of the absorbance in comparison to the DMSO-treated control. Percent cell viability was calculated following the equation: Cellviability%=A570Sample/A570ControlDMSO×100

[1] = test system: MCF-10A normal human breast epithelial immortalized cell line; assay: In vitro cytotoxicity (MTT) assay; type: cell-based; conditions: for IC50: Homo sapiens, MCF-10A, MTT
Protocol: as §1

MCF-7 = assay: In vitro cytotoxicity (MTT) assay; type: cell-based; conditions: Homo sapiens
Protocol: as §1

T-47D = assay: In vitro cytotoxicity (MTT) assay; type: cell-based; conditions: Homo sapiens, T47D
Protocol: as §1

MDA-MB-231 cells [2] = assay: Cell cycle analysis by flow cytometry (PI); type: cell-based, human; conditions: 30 μM
Protocol: In order to study the stages of the cell cycle affected by andrographolide, flow cytometry analysis of cell cycle was carried out. Cells were seeded in a 6-well tissue culture plate at an initial density of 2.5 × 10^5 cells per well in the presence of andrographolide (30 μM) or vehicle (DMSO) for 24, 36 and 48 h. The treatment medium and the attached cells were collected after trypsinisation and centrifugation at 1000 × g. Cells were then fixed with 70 % ethanol at 4 °C overnight. The resulted pellets were resuspended in PBS having 100 μg/ml RNAse A (Sigma-Aldrich, USA) and 50 μg/ml PI, and then kept in dark at 25 °C for 30 min. Cell cycle phase distribution were monitored on the BD FACSVerse™ (Becton Dickinson, USA) and analyzed by using FACSuite™ software. A total of 10,000 events were recorded.

MCF-7 cells = assay: Annexin V-FITC/PI flow cytometry (apoptosis); type: cell-based, human; conditions: MCF-7, IC50 concentration, 48 h
Protocol: (§2) In order to examine phosphatidyl serine externalization from inner to the outer cell membrane, a characteristic feature of apoptotic cell death and to quantify the percentage of apoptotic cell death, cultured MDA-MB-231 cells (1 × 10^6) were treated with 50 % inhibitory concentration (30 μM) of andrographolide for 24 h, 36 h and 48 h. Cells were resuspended in 1X binding buffer, labelled with fluorescein isothiocyanate (FITC)-conjugated Annexin V (200 μg/ml) and PI (30 μg/ml), incubated for 15 min at room temperature in the dark and analyzed by flow cytometry using BD FACSVerse™ (Becton Dickinson, USA). Data were analyzed using FACSuite™ software. For each set, total of 10,000 events were recorded. Similar experiment was also performed using MCF-7 cells treated with andrographolide for 48 h.

MDA-MB-231 cells [3] = assay: Annexin V-FITC/PI flow cytometry (apoptosis); type: cell-based, human; conditions: 30 μM
Protocol: as §2

Bax = assay: Western blot, protein expression in MDA-MB-231 cells; type: cell-based, human; conditions: 30 μM, 48 h
Protocol: (§3) Cells from control regime and andrographolide treatment (30 μM, 48 h) were used for Western blot. After centrifugation, cell pellets were lysed in RIPA buffer containing protease and phosphatase inhibitors (Roche, Germany). Each cell lysate was used for protein assay with Bio-Rad protein assay kit (Bio-Rad, USA). A protein sample of 50 μg was electrophoresed in a 12 % SDS-PAGE. Proteins were electro-transferred from the gel onto a nitrocellulose membrane (Amersham Biosciences, UK). After incubating with blocking buffer containing 5 % nonfat milk for 1 h, the membranes were probed with the primary antibody specific for Bcl-xL (1:750 dilution), Bcl-2 (1:1000), Bax (1:1000), cytochrome c (1:800) and Apaf-1 (1:500) at 4 °C. Membrane was then washed thrice with TBST (Tris buffered saline having 0.1 % Tween-20, pH 7.5), exposed to horseradish peroxidase conjugated secondary antibody (1:2500) and was then kept at 25 °C for 1 h. The membrane was then finally washed thrice with TBST. The protein bands were visualized by incubating the membrane with diaminobenzidine/hydrogen peroxide (Sigma-Aldrich) for color reaction. β-Actin and COX IV were also detected as loading controls.

Bcl-xL = assay: as above; type: cell-based, human; conditions: 30 μM, 48 h
Protocol: as §3

cytochrome c = assay: Western blot of cytosolic and mitochondrial fractions of MDA-MB-231 cells; type: cell-based, human; conditions: 30 μM, 48 h
Protocol: Cells were treated with andrographolide (30 μM) for 48 h and mitochondrial as well as cytosolic fractions were obtained with a mitochondria isolation kit (Pierce, Rockford, USA). The mitochondrial pellet was re-suspended in sample buffer for SDS-gel electrophoresis and analyzed by Western blot using cytochrome c antibody. COX IV and β-actin were used as loading controls for the mitochondrial fraction and cytosolic fraction respectively. Cytosolic fractions were also Western blotted for studying cytochrome c expression.
Cells from control regime and andrographolide treatment (30 μM, 48 h) were used for Western blot. After centrifugation, cell pellets were lysed in RIPA buffer containing protease and phosphatase inhibitors (Roche, Germany). Each cell lysate was used for protein assay with Bio-Rad protein assay kit (Bio-Rad, USA). A protein sample of 50 μg was electrophoresed in a 12 % SDS-PAGE. Proteins were electro-transferred from the gel onto a nitrocellulose membrane (Amersham Biosciences, UK). […] The protein bands were visualized by incubating the membrane with diaminobenzidine/hydrogen peroxide (Sigma-Aldrich) for color reaction. β-Actin and COX IV were also detected as loading controls.

caspase-3 = assay: Caspase activity assay (fluorometric, DEVD-AFC) in MDA-MB-231 cells; type: cell-based, human; conditions: 0-60 μM, 24 h
Protocol: MDA-MB-231 cells (1 × 10^5 cells per ml) were incubated with different concentrations of andrographolide (0, 15, 30, 45 and 60 μM) for 24 h and then centrifuged to detect caspase-3 and caspase-9 activation using caspase fluoremetric protease assay kit following manufacturer’s instructions. Briefly, cells were lysed in RIPA buffer supplemented with protease inhibitor cocktail and 10 μl lysate were diluted with 10 μl substrate buffer (1:1) containing 100 μM each of fluorogenic substrate, DEVD-AFC and LEHD-AFC for caspase-3 and caspase-9 respectively, and was then incubated for 90 min at 37 °C. Reactions were stopped using 0.2 mM sodium phosphate buffer (pH 7.5) and fluorescence was quantified by a spectrofluorometer (excitation, 405 nm; emission, 505 nm). Experiment was also performed using MCF-7 cells.

C=C1CC[C@@H]2[C@](C)(CO)[C@H](O)CC[C@@]2(C)[C@@H]1C/C=C1/C(=O)OC[C@H]1O [andrographolide]
IC50 (MDA-MB-231; Homo sapiens, MDA-MB-231, 24 h): 52 µM
IC50 (MDA-MB-231; Homo sapiens, MDA-MB-231, 48 h): 30 µM
IC50 (MDA-MB-231; MDA-MB-231, 48 h): 30.3 µM
IC50 at 48 h for MCF-10A higher than that for MDA-MB-231 cells ([1]; 48 h, MCF-10A vs MDA-MB-231): ~3.5 fold
IC50 ([1]; 24 h): 138 µM
IC50 ([1]; 48 h): 106 µM
treatment did not affect normal breast epithelial cells, MCF-10A ([1]; abstract, quantity not named (presumably viability)): > 80%
IC50 (MCF-7; MCF7, MCF-7, 24 h): 61.1 µM
IC50 (MCF-7; MCF7, MCF-7, 48 h): 36.9 µM
IC50 (T-47D; 24 h): 118 µM
IC50 (T-47D; 48 h): 72.6 µM
decrease in the cell number at the G1/G0 phase over the control (MDA-MB-231 cells [2]; 24 h): 24.75 ± 0.5%
increase in S population over the untreated control (MDA-MB-231 cells [2]; 24 h): 9.91 ± 0.3%
decrease in the cell number at the G1/G0 phase over the control (MDA-MB-231 cells [2]; 36 h): 28.86 ± 0.7%
increase in S population over the untreated control (MDA-MB-231 cells [2]; 36 h): 14.21 ± 0.2%
decrease in the cell number at the G1/G0 phase over the control (MDA-MB-231 cells [2]; 48 h): 33.53 ± 1.1%
percentage of apoptotic cells (MCF-7 cells): 41.17%
early apoptotic cells (annexin V+ and PI-) (MDA-MB-231 cells [3]; 24 h): 16.76 ± 0.51%
late apoptotic cells (annexin V+ and PI+) (MDA-MB-231 cells [3]; 24 h): 32.2 ± 2.2% and 32%
early apoptotic cells (annexin V+ and PI-) (MDA-MB-231 cells [3]; 36 h): 12.23 ± 0.29%
late apoptotic cells (annexin V+ and PI+) (MDA-MB-231 cells [3]; 36 h): 60.06 ± 0.6%
early apoptotic cells (annexin V+ and PI-) (MDA-MB-231 cells [3]; 48 h): 5.89 ± 0.67%
cell population in necrotic phase (MDA-MB-231 cells [3]; all the treated conditions (24, 36, 48 h)): < 1%
Bax expression, up-regulated (Bax): 2.39 ± 0.45 fold
Bcl-xL expression, down-regulated compared to control (Bcl-xL): 1.47 ± 0.06 fold
cytosolic cytochrome c expression, increase (cytochrome c; cytosolic fraction): 7.13 ± 1.17 fold
cytochrome c in the mitochondrial fraction, decrease (cytochrome c; mitochondrial fraction): 1.92 ± 0.05 fold
activation of caspase-3 (caspase-3): gradual dose-dependent activation
